Assay results published in patent publication US20200199104A1, “Novel Polymorphic Forms of a TGFBeta Inhibitor” (PFIZER INC., priority 2018, published 2020).

Assay: Critical water activity of solid forms, samples tested by powder X-ray diffraction
Format: physicochemical
From the text: Critical water activity is a phase boundary above which a hydrate is a stable form. […] Values of aw. correspond to percent humidity, where the percent humidity is described as 100 x aw. Thus 0.1 aw corresponds to 10% humidity, 0.2 aw corresponds to 20% humidity, and so on. The claimed polymorphic forms of Compound 1 mono-hydrochloride interconvert between Form 1 and Form 2 at a critical water activity of between 0.60 and 0.65 (corresponding to a relative humidity of between 60% and 65%). The critical water activity of the free base form of Compound 1 is between 0.2 and 0.3 (corresponding to a relative humidity between 20% and 30%). It is noted that manufacturing processes are routinely run at relative humidities that exceed 30% relative humidity, but manufacturing processes run at relative humidities of >60% are unusual. Samples were tested using powder X-ray diffraction. Analysis was conducted using a Bruker AXS D8 Endeavor diffractometer equipped with a Cu radiation source. The divergence slit was set at 6 mm continuous illumination. Diffracted radiation was detected by a PSD-Lynx Eye detector, with the detector PSD opening set at 4.104 degrees. The X-ray tube voltage and amperage were set to 40 kV and 40 mA respectively. Data was collected in the Theta-Theta goniometer at the Cu wavelength from 3.0 to 40.0 degrees 2-Theta using a step size of 0.020 degrees and a step time of 0.3 second. Samples were prepared by placing them in a silicon low background sample holder and rotated during collection. Data were collected using Bruker DIFFRAC Plus software and analysis was performed by EVA diffract plus software.

PXRD Result (solid form) (Water Activity at Room Temperature 0.1 aw)	PXRD Result (solid form) (Water Activity at Room Temperature 0.2 aw)	PXRD Result (solid form) (Water Activity at Room Temperature 0.3 aw)	PXRD Result (solid form) (Water Activity at Room Temperature 0.5 aw)	PXRD Result (solid form) (Water Activity at Room Temperature 1.0 Aw)	PXRD Result (solid form) (Water Activity at Room Temperature 0.60 aw)	PXRD Result (solid form) (Water Activity at Room Temperature 0.65 aw)	PXRD Result (solid form) (Water Activity at Room Temperature 0.70 aw)	PXRD Result (solid form) (Water Activity at Room Temperature 0.75 aw)	PXRD Result (solid form) (Water Activity at Room Temperature 0.80 aw)	Compound
free base anhydrous	free base anhydrous	free base monohydrate	free base monohydrate	free base monohydrate	–	–	–	–	–	CC(C)c1cnc(-c2cc(Cl)ccc2F)cc1Nc1ccncc1C(=O)NC(CO)CO [Compound 1, Free Base, 4-(2-(5-chloro-2-fluorophenyl)-5-isopropylpyridin-4-ylamino)-N-(1,3-dihydroxypropan-2-yl)nicotinamide]
–	–	–	–	–	Form 1	Form 2	Form 2	Form 2	Form 2	CC(C)c1cnc(-c2cc(Cl)ccc2F)cc1Nc1ccncc1C(=O)NC(CO)CO.Cl [Compound 1, mono-HCl salt, 4-(2-(5-chloro-2-fluorophenyl)-5-isopropylpyridin-4-ylamino)-N-(1,3-dihydroxypropan-2-yl)nicotinamide mono hydrochloride]
